Source: US20160102002A1, “WATER TREATMENT” (BWA WATER ADDITIVES UK LIMITED, priority 2014, published 2016)

Key:
Enterobacter aerogenes = assay: Log10 reduction of viable facultative anaerobic bacteria in dosed high-TDS suspension (serial dilution into anaerobic acid producing media vials); format: cell-based; conditions: pH 7 phosphate buffer, room temperature, ppm per example
Experimental: (§1) A suspension of Desulfovibrio vulgaris plus Enterobacter aerogenes bacteria containing from 1×10^6 to 1×10^8 cells/mL was prepared in sterile pH 7 phosphate buffer containing varying levels of sodium chloride to give the desired total dissolved solids (TDS) concentration. Aliquots of this suspension were dosed with the indicated concentrations of phosphonium compound (a) and stabilised halogen containing composition (b) with the concentrations being measured as ppm by weight of the stated composition in the dosed suspension. The mixtures were allowed to stand at room temperature. At the designated contact times, each mixture was sampled to determine the total number of viable cells of both Desulfovibrio vulgaris and Enterobacter aerogenes by serial 10-fold dilution into API RP 38 media vials and anaerobic acid producing media vials, respectively. The vials were incubated at 37° C. for 72 hours. Results were recorded as cells per milliliter. […]
(§2) The efficacy of the treatment agents was evaluated by measuring the Log 10 Reduction of the anaerobic bacterium Desulfovibrio vulgaris and the facultative anaerobeic bacterium Enterobacter aerogenes after contact times of 1 hour and 24 hours as detailed in Tables 1 and 2. […]

Desulfovibrio vulgaris = assay: Log10 reduction of viable anaerobic bacteria in dosed high-TDS suspension (serial dilution into API RP 38 media vials); format: cell-based; conditions: pH 7 phosphate buffer, room temperature, ppm per example
Experimental: as §1, §2

[1] = TDS 100,000 mg l^-1, contact time 1 hour
[2] = TDS 100,000 mg l^-1, contact time 24 hours

| Structure (SMILES) | Log10 Reduction Facultative Anaerobes (Enterobacter aerogenes; [1]) | Log10 Reduction Anaerobes (Desulfovibrio vulgaris; [1]) | Log10 Reduction Facultative Anaerobes (Enterobacter aerogenes; [2]) | Log10 Reduction Anaerobes (Desulfovibrio vulgaris; [2]) |
| --- | --- | --- | --- | --- |
| CCCCCCCCCCCCCC[P+](CCCC)(CCCC)CCCC.[Cl-] [Example 3, tri n-butyl n-tetradecyl phosphonium chloride] | 0 | 0 |  |  |
| CCCCCCCCCCCCCC[P+](CCCC)(CCCC)CCCC.[Cl-] [Example 17, tri n-butyl n-tetradecyl phosphonium chloride] |  |  | 0 | 0 |
